Laboratory results reported in US10730863B2, “Bridged bicyclic compounds as farnesoid X receptor modulators” (BRISTOL-MYERS SQUIBB COMPANY, priority 2017, dated 2020).

What follows are compounds tested against FXR (Homo sapiens (Human), UniProt Q96RI1) (assay: FXR EC50 (FXR agonist activity reported with each example)).
Format: cell-based

FXR, sequence (Q96RI1 262-486): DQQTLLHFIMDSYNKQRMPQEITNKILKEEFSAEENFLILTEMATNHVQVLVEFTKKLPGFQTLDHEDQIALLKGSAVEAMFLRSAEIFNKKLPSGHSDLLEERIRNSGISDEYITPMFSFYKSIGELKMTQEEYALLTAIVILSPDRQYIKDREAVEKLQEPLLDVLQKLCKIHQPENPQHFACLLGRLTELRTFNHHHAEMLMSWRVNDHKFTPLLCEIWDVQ

Compound | EC50 [nM]
COc1cc(C(=O)O)ccc1OCC12CCC(/C=C/c3c(-c4c(Cl)cncc4Cl)noc3C3CC3)(CC1)CC2 [Example 450, (E)-4-((4-(2-(5-cyclopropyl-3-(3,5-dichloropyridin-4-yl)isoxazol-4-yl)vinyl)bicyclo[2.2.2]octan-1-yl)methoxy)-3-methoxybenzoic acid] | 18
O=C(O)c1cc(OC(F)F)c2cc(OCC34CCC(/C=C/c5c(-c6c(Cl)cncc6Cl)noc5C5CC5)(CC3)CC4)ccc2n1 [Example 451, (E)-6-((4-(2-(5-cyclopropyl-3-(3,5-dichloropyridin-4-yl)isoxazol-4-yl)vinyl)bicyclo[2.2.2]octan-1-yl)methoxy)-4-(difluoromethoxy)quinoline-2-carboxylic acid] | 35
O=C(O)c1cc(C(F)(F)F)c2cc(OCC34CCC(/C=C/c5c(-c6c(Cl)cncc6Cl)noc5C5CC5)(CC3)CC4)ccc2n1 [Example 452, (E)-6-((4-(2-(5-cyclopropyl-3-(3,5-dichloropyridin-4-yl)isoxazol-4-yl)vinyl)bicyclo[2.2.2]octan-1-yl)methoxy)-4-(trifluoromethyl)quinoline-2-carboxylic acid] | 14
O=C(O)c1cccc2nc(C34CCC(OCc5c(-c6c(Cl)cccc6Cl)noc5C5CC5)(CC3)CO4)sc12 [Example 454, 2-(4-((5-cyclopropyl-3-(2,6-dichlorophenyl)isoxazol-4-yl)methoxy)-2-oxabicyclo[2.2.2]octan-1-yl)benzo[d]thiazole-7-carboxylic acid] | 680
COc1ccc(-c2noc(C34CCC(OCc5c(-c6c(Cl)cncc6Cl)noc5C5CC5)(CC3)CO4)n2)cc1C(=O)O [Example 455, 5-(5-(4-((5-cyclopropyl-3-(3,5-dichloropyridin-4-yl)isoxazol-4-yl)methoxy)-2-oxabicyclo[2.2.2]octan-1-yl)-1,2,4-oxadiazol-3-yl)-2-methoxybenzoic acid] | 290
O=C(O)c1cccc2nc(C34CCC(CCc5c(-c6ccccc6OC(F)(F)F)noc5C5CC5)(CC3)CC4)sc12 [Example 456, 2-(4-(2-(5-cyclopropyl-3-(2-(trifluoromethoxy)phenyl)isoxazol-4-yl)ethyl)bicyclo[2.2.2]octan-1-yl)benzo[d]thiazole-7-carboxylic acid] | 22
O=C(O)c1ccc(C23CCC(/C=C/c4c(-c5c(Cl)cncc5Cl)noc4C4CC4)(CC2)CO3)cc1 [Example 457, (E)-4-(4-(2-(5-cyclopropyl-3-(3,5-dichloropyridin-4-yl)isoxazol-4-yl)vinyl)-2-oxabicyclo[2.2.2]octan-1-yl)benzoic acid] | 87
O=C(O)c1cc(F)cc(-c2noc(C34CCC(OCc5c(-c6c(Cl)cncc6Cl)noc5C5CC5)(CC3)CC4)n2)c1 [Example 458, 3-(5-(4-((5-cyclopropyl-3-(3,5-dichloropyridin-4-yl)isoxazol-4-yl)methoxy)bicyclo[2.2.2]octan-1-yl)-1,2,4-oxadiazol-3-yl)-5-fluorobenzoic acid] | 85
COc1ccc(C(=O)O)cc1-c1noc(C23CCC(OCc4c(-c5c(Cl)cncc5Cl)noc4C4CC4)(CC2)CC3)n1 [Example 459, 3-(5-(4-((5-cyclopropyl-3-(3,5-dichloropyridin-4-yl)isoxazol-4-yl)methoxy)bicyclo[2.2.2]octan-1-yl)-1,2,4-oxadiazol-3-yl)-4-methoxybenzoic acid] | 630
O=C(O)c1ccc(F)c(-c2noc(C34CCC(OCc5c(-c6c(Cl)cncc6Cl)noc5C5CC5)(CC3)CC4)n2)c1 [Example 461, 3-(5-(4-((5-cyclopropyl-3-(3,5-dichloropyridin-4-yl)isoxazol-4-yl)methoxy)bicyclo[2.2.2]octan-1-yl)-1,2,4-oxadiazol-3-yl)-4-fluorobenzoic acid] | 190
N#Cc1cnc2ccc(OCC34CCC(OCc5c(-c6c(Cl)cncc6Cl)noc5C5CC5)(CC3)CC4)nn12 [Example 462, 6-((4-((5-cyclopropyl-3-(3,5-dichloropyridin-4-yl)isoxazol-4-yl)methoxy)bicyclo[2.2.2]octan-1-yl)methoxy)imidazo[1,2-b]pyridazine-3-carbonitrile] | 220
O=C(O)c1cc(F)cc2nc(OCC34CCC(OCc5c(-c6c(Cl)cncc6Cl)noc5C5CC5)(CC3)CC4)sc12 [Example 463, 2-((4-((5-cyclopropyl-3-(3,5-dichloropyridin-4-yl)isoxazol-4-yl)methoxy)bicyclo[2.2.2]octan-1-yl)methoxy)-5-fluorobenzo[d]thiazole-7-carboxylic acid] | 41
O=C(O)c1cc(OCC23CCC(COCc4c(-c5c(Cl)cncc5Cl)noc4C4CC4)(CC2)CC3)cc(C(F)(F)F)c1 [Example 464, 3-((4-(((5-cyclopropyl-3-(3,5-dichloropyridin-4-yl)isoxazol-4-yl)methoxy)methyl)bicyclo[2.2.2]octan-1-yl)methoxy)-5-(trifluoromethyl)benzoic acid] | 300
O=C(O)c1csc(OCC23CCC(OCc4c(-c5c(Cl)cncc5Cl)noc4C4CC4)(CC2)CC3)n1 [Example 465, 2-((4-((5-cyclopropyl-3-(3,5-dichloropyridin-4-yl)isoxazol-4-yl)methoxy)bicyclo[2.2.2]octan-1-yl)methoxy)thiazole-4-carboxylic acid] | 180
O=C(O)c1cnc2ccc(OCC34CCC(OCc5c(-c6c(Cl)cncc6Cl)noc5C5CC5)(CC3)CC4)nn12 [Example 466, 6-((4-((5-cyclopropyl-3-(3,5-dichloropyridin-4-yl)isoxazol-4-yl)methoxy)bicyclo[2.2.2]octan-1-yl)methoxy)imidazo[1,2-b]pyridazine-3-carboxylic acid] | 390
O=C(O)c1cccc(-c2noc(C34CCC(/C=C/c5c(-c6c(Cl)cncc6Cl)noc5C5CC5)(CC3)CO4)n2)c1 [Example 467, (E)-3-(5-(4-(2-(5-cyclopropyl-3-(3,5-dichloropyridin-4-yl)isoxazol-4-yl)vinyl)-2-oxabicyclo[2.2.2]octan-1-yl)-1,2,4-oxadiazol-3-yl)benzoic acid] | 260
O=C(O)c1cc(OCC23CCC(/C=C/c4c(-c5c(Cl)cncc5Cl)noc4C4CC4)(CC2)CO3)cc(C(F)(F)F)c1 [Example 468, (E)-3-((4-(2-(5-cyclopropyl-3-(3,5-dichloropyridin-4-yl)isoxazol-4-yl)vinyl)-2-oxabicyclo[2.2.2]octan-1-yl)methoxy)-5-(trifluoromethyl)benzoic acid] | 70
O=C(O)c1cc(F)cc2nc(OCC34CCC(/C=C/c5c(-c6c(Cl)cncc6Cl)noc5C5CC5)(CC3)CC4)sc12 [Example 469, (E)-2-((4-(2-(5-cyclopropyl-3-(3,5-dichloropyridin-4-yl)isoxazol-4-yl)vinyl)bicyclo[2.2.2]octan-1-yl)methoxy)-5-fluorobenzo[d]thiazole-7-carboxylic acid] | 190
COc1cc(OCC23CCC(/C=C/c4c(-c5c(Cl)cncc5Cl)noc4C4CC4)(CC2)CO3)cc(C(=O)O)c1 [Example 470, (E)-3-((4-(2-(5-cyclopropyl-3-(3,5-dichloropyridin-4-yl)isoxazol-4-yl)vinyl)-2-oxabicyclo[2.2.2]octan-1-yl)methoxy)-5-methoxybenzoic acid] | 110
O=C(O)c1cc(OC(F)F)c2cc(OCC34CCC(OCc5c(-c6c(Cl)cncc6Cl)noc5C5CC5)(CC3)CO4)ccc2n1 [Example 471, 6-((4-((5-cyclopropyl-3-(3,5-dichloropyridin-4-yl)isoxazol-4-yl)methoxy)-2-oxabicyclo[2.2.2]octan-1-yl)methoxy)-4-(difluoromethoxy)quinoline-2-carboxylic acid] | 200
O=C(O)c1cc(OC(F)F)c2cc(OCC34CCC(/C=C/c5c(-c6c(Cl)cncc6Cl)noc5C5CC5)(CC3)OC4)ccc2n1 [Example 472, (E)-6-((1-(2-(5-cyclopropyl-3-(3,5-dichloropyridin-4-yl)isoxazol-4-yl)vinyl)-2-oxabicyclo[2.2.2]octan-4-yl)methoxy)-4-(difluoromethoxy)quinoline-2-carboxylic acid] | 290
O=C(O)c1cc(OCC23CCC(/C=C/c4c(-c5c(Cl)cncc5Cl)noc4C4CC4)(CC2)OC3)cc(C(F)(F)F)c1 [Example 473, (E)-3-((1-(2-(5-cyclopropyl-3-(3,5-dichloropyridin-4-yl)isoxazol-4-yl)vinyl)-2-oxabicyclo[2.2.2]octan-4-yl)methoxy)-5-(trifluoromethyl)benzoic acid] | 320
COc1cc(OCC23CCC(/C=C/c4c(-c5c(Cl)cncc5Cl)noc4C4CC4)(CC2)OC3)cc(C(=O)O)c1 [Example 474, (E)-3-((1-(2-(5-cyclopropyl-3-(3,5-dichloropyridin-4-yl)isoxazol-4-yl)vinyl)-2-oxabicyclo[2.2.2]octan-4-yl)methoxy)-5-methoxybenzoic acid] | 490
CC(C)(C#N)c1ccc(C23CCC(/C=C/c4c(-c5c(Cl)cncc5Cl)noc4C4CC4)(CC2)CO3)cc1 [Example 475, (E)-2-(4-(4-(2-(5-cyclopropyl-3-(3,5-dichloropyridin-4-yl)isoxazol-4-yl)vinyl)-2-oxabicyclo[2.2.2]octan-1-yl)phenyl)-2-methylpropanenitrile] | 1500
CC(C)(C#N)c1ccc(C23CCC(/C=C/c4c(-c5ccccc5C(F)(F)F)noc4C4CC4)(CC2)CO3)cc1 [Example 476, (E)-2-(4-(4-(2-(5-cyclopropyl-3-(2-(trifluoromethyl)phenyl)isoxazol-4-yl)vinyl)-2-oxabicyclo[2.2.2]octan-1-yl)phenyl)-2-methylpropanenitrile] | 690
CC(C)(C(=O)O)c1ccc(C23CCC(/C=C/c4c(-c5ccccc5C(F)(F)F)noc4C4CC4)(CC2)CO3)cc1 [Example 477, (E)-2-(4-(4-(2-(5-cyclopropyl-3-(2-(trifluoromethyl)phenyl)isoxazol-4-yl)vinyl)-2-oxabicyclo[2.2.2]octan-1-yl)phenyl)-2-methylpropanoic acid] | 1500
O=C(O)c1cc(-c2noc(C34CCC(/C=C/c5c(-c6c(Cl)cncc6Cl)noc5C5CC5)(CC3)CO4)n2)cc(C(F)(F)F)c1 [Example 478, (E)-3-(5-(4-(2-(5-cyclopropyl-3-(3,5-dichloropyridin-4-yl)isoxazol-4-yl)vinyl)-2-oxabicyclo[2.2.2]octan-1-yl)-1,2,4-oxadiazol-3-yl)-5-(trifluoromethyl)benzoic acid] | 120
